In US7741124B2, “Detection procedures for fibrinogen and/or fibrinogen derivatives” (priority 2003, dated 2010):

Columns and labels:
fibrinogen = biological target: T1, fibrinogen (Homo sapiens, UniProt P02671+P02675+P02679); test: FIATA optimization: turbidity in dependence of vancomycin concentration; format: biochemical
T1 construct: pooled patient plasma (P-Pool, n=32 single plasmas); from tissue; host or cells: pooled citrated patient plasma (P-Pool, Fbgen-Pool-Plasma)
T1 sequence (P02671 20-644 isoform P02671-2 limits assumed): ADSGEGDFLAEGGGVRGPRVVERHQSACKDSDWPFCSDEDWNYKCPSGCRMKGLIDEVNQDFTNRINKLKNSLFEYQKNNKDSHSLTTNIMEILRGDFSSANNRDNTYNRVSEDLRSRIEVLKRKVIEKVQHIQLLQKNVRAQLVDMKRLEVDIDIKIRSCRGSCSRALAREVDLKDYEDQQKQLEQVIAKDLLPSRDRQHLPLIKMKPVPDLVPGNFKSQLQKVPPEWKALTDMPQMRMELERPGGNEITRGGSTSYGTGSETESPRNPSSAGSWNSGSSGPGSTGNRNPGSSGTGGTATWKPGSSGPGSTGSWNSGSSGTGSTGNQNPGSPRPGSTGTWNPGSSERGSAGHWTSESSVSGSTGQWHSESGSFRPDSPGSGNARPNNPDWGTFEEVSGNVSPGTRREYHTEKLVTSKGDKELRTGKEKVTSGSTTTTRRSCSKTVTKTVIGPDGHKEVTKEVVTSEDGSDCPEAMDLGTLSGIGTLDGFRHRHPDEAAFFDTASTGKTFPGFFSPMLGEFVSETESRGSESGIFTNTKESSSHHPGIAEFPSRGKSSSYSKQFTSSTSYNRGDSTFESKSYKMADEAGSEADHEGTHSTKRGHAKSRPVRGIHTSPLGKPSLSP
T1 sequence (P02675 31-491): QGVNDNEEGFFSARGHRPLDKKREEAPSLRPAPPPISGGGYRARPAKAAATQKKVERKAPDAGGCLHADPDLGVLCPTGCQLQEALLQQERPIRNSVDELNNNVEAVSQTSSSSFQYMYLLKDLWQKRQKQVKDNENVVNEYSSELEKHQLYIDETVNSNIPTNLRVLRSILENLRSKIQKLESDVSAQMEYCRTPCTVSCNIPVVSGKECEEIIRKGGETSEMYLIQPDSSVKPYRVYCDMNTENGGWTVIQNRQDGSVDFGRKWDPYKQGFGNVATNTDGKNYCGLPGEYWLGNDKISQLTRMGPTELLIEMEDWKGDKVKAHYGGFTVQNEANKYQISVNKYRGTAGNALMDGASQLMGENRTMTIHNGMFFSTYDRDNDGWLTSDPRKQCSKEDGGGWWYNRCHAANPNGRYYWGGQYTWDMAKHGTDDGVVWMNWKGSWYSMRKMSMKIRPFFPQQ
T1 sequence (P02679 27-437 isoform P02679-2 limits assumed): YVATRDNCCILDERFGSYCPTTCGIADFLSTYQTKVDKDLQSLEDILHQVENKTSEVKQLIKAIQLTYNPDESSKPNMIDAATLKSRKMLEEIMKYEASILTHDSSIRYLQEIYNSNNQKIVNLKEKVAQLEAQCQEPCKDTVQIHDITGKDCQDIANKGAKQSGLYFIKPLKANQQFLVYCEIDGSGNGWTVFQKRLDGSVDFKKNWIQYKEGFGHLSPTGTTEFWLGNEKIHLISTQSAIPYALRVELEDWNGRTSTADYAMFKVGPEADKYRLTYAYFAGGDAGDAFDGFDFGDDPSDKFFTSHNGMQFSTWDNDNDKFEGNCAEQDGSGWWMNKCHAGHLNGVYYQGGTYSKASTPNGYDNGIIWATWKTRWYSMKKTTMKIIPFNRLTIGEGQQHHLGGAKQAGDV
Protocol: 50 μl P-Pool or 1:2 or 1:4 diluted (in 6% BSA-PBS) P-Pool were incubated with 50 μl 0-6.8 mM vancomycin in PBS. The turbidity increase at 405 nm was determined after 1 min (RT). 25 μl Fbgen-Pool (300% of norm; 8.4 g/l) were incubated with 125 μl 0.55 mM, 1.1 mM, or 2.2 mM vancomycin in PBS for 1 min (RT). Then the turbidity increase at 405 nm was determined.

[1] = biological target: T2, fibrinogen in human plasma (Homo sapiens, UniProt P02671+P02675+P02679); test: Inactivation of fibrinogen by vancomycin or chloramine-T (FIFTA read-out); format: biochemical
T2 construct: 200 μl of 256% of norm active fibrinogen in P-Pool; from tissue; host or cells: pooled citrated human patient plasma (P-Pool / Fbgen-Pool)
T2 sequence (P02671 20-629 isoform P02671-2 limits assumed): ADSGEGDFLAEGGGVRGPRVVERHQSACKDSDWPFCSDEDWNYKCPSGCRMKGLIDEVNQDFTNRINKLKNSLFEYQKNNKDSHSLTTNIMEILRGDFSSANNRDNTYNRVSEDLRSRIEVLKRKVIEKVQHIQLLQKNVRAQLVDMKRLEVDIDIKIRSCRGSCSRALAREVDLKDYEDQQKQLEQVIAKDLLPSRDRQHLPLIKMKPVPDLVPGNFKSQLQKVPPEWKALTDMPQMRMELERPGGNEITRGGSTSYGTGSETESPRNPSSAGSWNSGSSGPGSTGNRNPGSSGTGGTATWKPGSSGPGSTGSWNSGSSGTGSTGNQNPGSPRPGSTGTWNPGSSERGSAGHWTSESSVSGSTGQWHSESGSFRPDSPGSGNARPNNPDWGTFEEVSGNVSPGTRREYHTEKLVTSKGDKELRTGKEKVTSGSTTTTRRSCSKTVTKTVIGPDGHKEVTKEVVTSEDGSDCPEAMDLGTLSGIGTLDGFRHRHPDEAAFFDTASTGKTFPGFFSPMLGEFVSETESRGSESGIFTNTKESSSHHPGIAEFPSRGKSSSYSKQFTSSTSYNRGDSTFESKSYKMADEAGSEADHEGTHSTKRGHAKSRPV
T2 sequence (P02675 31-491): T1 sequence (P02675 31-491)
T2 sequence (P02679 27-437 isoform P02679-2 limits assumed): T1 sequence (P02679 27-437 isoform P02679-2 limits assumed)
Protocol: 200 μl of 256% of norm active fibrinogen in P-Pool were incubated with 25 μl 0-100 mM vancomycin or 0-100 mM chloramine-T® in aqua dest. for 15 min (37° C.). 50 μl samples of these reaction mixtures were withdrawn and incubated with 100 μl 200 mIU/ml thrombin, 400 μg/ml Polybrene®, 6% BSA-PBS. The results were standardized by simultaneous analysis of 144% of norm active fibrinogen in P-Pool.

CN[C@H](CC(C)C)C(=O)N[C@H]1C(=O)N[C@@H](CC(N)=O)C(=O)N[C@H]2C(=O)N[C@H]3C(=O)N[C@H](C(=O)N[C@H](C(=O)O)c4cc(O)cc(O)c4-c4cc3ccc4O)[C@H](O)c3ccc(c(Cl)c3)Oc3cc2cc(c3O[C@@H]2O[C@H](CO)[C@@H](O)[C@H](O)[C@H]2O[C@H]2C[C@](C)(N)[C@H](O)[C@H](C)O2)Oc2ccc(cc2Cl)[C@H]1O [vancomycin]
fibrinogen concentration at saturation of turbidity increase (fibrinogen; 68.8 μmoles of vancomycin given to 25 μl 300% Fbgen-Pool): about 4 g/l | own turbidity at 405 nm (fibrinogen; 4.4 mM vancomycin in PBS, 0% fibrinogen standard in BSA): < 50 mA | fibrinogen concentration at saturation of turbidity increase (fibrinogen; 137.5-275 μmoles of vancomycin): 6 to 8 g/L | stability of the turbidity increase (fibrinogen; vancomycin in plasma, RT): at least 10 min | IC50 [1]: ~1000 µM
